Assay results taken from patent US20240287064A1, “TRICYCLIC COMPOUND USED AS GPR84 ANTAGONIST” (Wuhan Humanwell Innovative Drug Research and Development …, priority 2021, published 2024).

What was measured:
[1] = Pharmacokinetic experiment in mice; type: in vivo; conditions: mouse; male ICR mice, oral gavage 3 mg/kg, plasma
Description: For the pharmacokinetic experiment in mice, male ICR mice, 20 to 25 g, were used and fasted overnight. Three mice were taken and orally administered by gavage (3 mg/kg): blood was collected before the administration, and at 15 min, 30 min, 1 hour, 2 hours, 4 hours, 8 hours, and 24 hours after the administration. The blood samples were centrifuged at 6800 g for 6 min at 2 to 8° C., and plasma was collected and stored at −80° C. 20 μL of plasma at each time point was taken, and added with 200 μL of methanol containing 100 ng/mL internal standard. The mixture was vortexed, mixed evenly, and then centrifuged at 18000 g for 7 min at 2 to 8° ° C. 200 μL of the mixture was transferred to a 96-well injection plate for LC-MS/MS quantitative analysis. The main pharmacokinetic parameters were analyzed using WinNonlin 7.0 software with non-compartmental model.

human GPR84 receptor = target: T1, human GPR84 receptor (Homo sapiens, UniProt Q9NQS5); experiment: GPR84 antagonistic effect determination (cAMP assay, forskolin and 6-OAU stimulation); type: cell-based; conditions: CHO stably transfected cell line highly expressing human GPR84; 2.5 μM Forskolin & 200 nM 6-OAU; cAMP readout; read-out: Antagonistic effect against GPR84, IC50
T1 construct: expressed in transfected cells; host or cells: CHO
T1 sequence (Q9NQS5 whole entry): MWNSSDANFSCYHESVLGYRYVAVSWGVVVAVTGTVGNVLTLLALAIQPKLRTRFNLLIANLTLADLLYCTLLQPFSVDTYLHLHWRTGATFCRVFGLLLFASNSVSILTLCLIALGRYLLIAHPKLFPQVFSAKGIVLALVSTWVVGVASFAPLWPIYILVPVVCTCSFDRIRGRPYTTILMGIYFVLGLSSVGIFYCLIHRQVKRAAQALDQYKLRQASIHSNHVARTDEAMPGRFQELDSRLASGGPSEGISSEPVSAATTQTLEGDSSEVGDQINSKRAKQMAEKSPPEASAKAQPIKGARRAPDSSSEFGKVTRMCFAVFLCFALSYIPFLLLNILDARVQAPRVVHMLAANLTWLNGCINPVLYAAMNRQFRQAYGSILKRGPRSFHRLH
Description: The antagonistic effect of the compound against GPR84 was determined in a CHO stably transfected cell line highly expressing the human GPR84 receptor. The stably transfected cells were cultured until 80% confluence; the cells were collected by trypsinization, counted, and then inoculated into a 384-well plate at 5 L/well. 10× compound working solution was prepared with 1× Stimulation Buffer. […] After the reaction was completed, the content of CAMP in the cells was quantified according to the method in the instructions of the cAMP assay kit (Perkin Elmer, Cat #TRF0263). The antagonistic effect (IC50 value) of the test compounds was calculated.

Row | SMILES | AUC(0-t) [1] | Cmax [1] | Tmax [1] | half-life [1] | IC50 (human GPR84 receptor)
1 | O=c1nc(OC[C@@H]2COCCO2)cc2n1CCc1cc(C#CC3CC3)ccc1-2 [Control compound, reference compound] | 7.28 µg·h/mL | 4.12 µg/mL | 30 min | 229 min | –
2 | O=c1nc(OCC23CC(CO2)C3)cc2n1CCc1cc(C#CC3CC3)ccc1-2 [Compound I-1, 2-((2-oxabicyclo[2.1.1]hexan-1-yl)methoxy)-9-(cyclopropylethynyl)-6,7-dihydro-4H-pyrimido[6,1-α]isoquinolin-4-one] | 54.4 µg·h/mL | 14.8 µg/mL | 30 min | 61.8 min | 0.0272 µM
